Data as given in US20200171065A1, “METHOD FOR TREATING LIVER DISEASE WITH KINSENOSIDE” (HUAZHONG UNIVERSITY OF SCIENCE AND TECHNOLOGY, priority 2017, published 2020).
“Also recorded” adds a separate entry of the source. Like-named read-outs stand apart in the source and are kept apart here.

What was measured:
[1] = tested on: C57BL/6J mice with alcoholic fatty liver; test: Alcoholic fatty liver (5% alcoholic Lieber-DeCarli liquid diet); format: in vivo
Experimental: C57BL/6J mice aged 7-8 weeks were raised in the SPF experimental animal center of Tongji Medical College of Huazhong University of Science and Technology. They were provided with standard diet and drinking water. The room temperature was controlled at 23±2° C. After 7 days of adaptive feeding, they were given drugs by intragastric administration. […] The mice were fed with a 5% alcoholic Lieber-DeCarli liquid diet and developed alcoholic fatty liver disease. The mice were administered with alcohol and drugs. Spherically, drinking water were administered to the control group and the model group, and different doses were administered to the dose groups.

[2] = tested on: C57 mice with MCD-induced NASH; test: Nonalcoholic steatohepatitis induced by methionine choline deficiency (MCD) feed; format: in vivo
Experimental: 150 SPF male mice C57 aged 6-8 weeks were raised in the SPF experimental animal center of Tongji Medical College of Huazhong University of Science and Technology. They were provided with standard diet and drinking water. The room temperature was controlled at 23±2° C. After 7 days of adaptive feeding, they were given drugs by intragastric administration. […] The control groups were administered with normal diet. The model group and each administration group were fed with methionine choline deficiency (MCD) feed. Each group was administrated by gavage. The control group and the model group were given equal amount of thrice steamed water once a day for 8 weeks. The mice were weighed every three days. The hair color, state, food, water and defecation of each group were observed, and the death of each group was recorded. At the end of the 2nd week, 4th week and 6th week, three mice were randomly selected and killed to observe the modeling state. At the end of the 8th week, after the last administration, all mice were provided with no food but water for 12 hours, and all indexes were measured.

[3] = tested on: FVB/N mice with serine/threonine kinase (AKT) overexpressed in the liver (NAFL-NASH-liver fibrosis); details: for Diameter of hepatic portal vein / Diameter of inferior vena cava / Length of the spleen / Oblique diameter of right lobe of liver / Thickness of the left lobe of liver / Thickness of the spleen: KD 30 mg/kg, type B ultrasound; for IFN-γ / IL-2 / IL-10 / IL-12 / NO / TNF-α: NASH
Experimental: The serine/threonine kinase (AKT) and transposase plasmids were injected into the liver of the mice by a transposition system through hydrodynamics. The serine/threonine kinase was specifically overexpressed in the liver, and the mice except the control group were modeled. One week later, nonalcoholic fatty liver (NAFL) was formed; two weeks later, steatohepatitis (NASH) was formed; and four weeks later, a primary hepatic fibrosis model was established. In the formation of NAFL-NASH-liver fibrosis, the therapeutic effect of KD was observed.

## O=C1C[C@@H](O[C@@H]2O[C@H](CO)[C@@H](O)[C@H](O)[C@H]2O)CO1 [KD]
[1]; 40 and 20 mg/kg KD
  fat vacuoles / histopathological damage of liver (H&E staining): could reduce histopathological damage of liver and reduce fat vacuoles in liver of mice; also recorded: fat vacuoles were reduced
[1]; AFL mice
  SOD activity in the liver / oxidative stress injuries: increased the activity of superoxide dismutase (SOD) in the liver of AFL and ALF mice; also recorded: could reverse the oxidative stress injuries
  serum ALT: decreased the serum alanine aminotransferase (ALT) of AFL and ALF mice
[1]; high and medium dose groups
  secretion of TNF-α and IL-6: inhibited the secretion of TNF and IL6 in AFL and ALF; also recorded: reduced the secretion of the inflammatory cytokine TNF-α and IL-6
[1]; mouse, in vivo
  therapeutic effect on alcoholic fatty liver (overall): has a good therapeutic effect on alcoholic fatty liver and alcoholic liver fibrosis
[2]; 8 w, high-dose KD group
  lipid droplet area of sections (Image J), compared with the positive group: even better than that of the positive group
[2]; 40, 20 and 10 mg/kg KD
  liver fat accumulation (oil red O staining): Fat accumulation in liver was significantly reduced
[2]; KD group at different doses
  liver cell apoptosis / Cleaved Caspase3 (CC3) protein (immunohistochemical staining): could reduce the liver cell apoptosis to varying degrees, thus reducing the expression of liver CC3 protein
[2]; KD high-dose group
  expression of Bcl-2, Bax and Casp3 genes in liver (RT-qPCR): significantly increased the expression of anti-apoptotic gene Bcl-2, decreased the expression of pro-apoptotic gene Bax, reduced the expression of apoptotic marker gene Casp3
[2]; all the KD groups, 8 weeks
  fiber formation (Masson staining, fiber area): the liver fiber content decreased, and the effect of KD was even better than that of the positive drug group; also recorded: had inhibitory effect on the fiber formation
[2]; different doses of KD
  liver coefficient (liver index): could reduce liver fat and normalize the liver index; also recorded: reduce liver coefficient
[2]; different doses of KD, 8 weeks
  ALT and AST levels in the serum: the AST and ALT levels were decreased in each dose group of KD; also recorded: could significantly reduce the ALT and AST levels in the serum
[2]; each KD dose group
  expression of fibrotic marker protein α-SMA (Western blot, immunohistochemistry): could reduce the expression of α-SMA; also recorded: could be reduced in each KD dose group
[2]; each KD group
  lipid content: slightly increased
[2]; each dose group of KD
  serum HA and LN (ELISA): could significantly reduce the content of HA and LN; also recorded: could reduce the content of HA and LN in varying degrees
[2]; mouse, in vivo
  expression of Bcl-xl and BAX proteins in liver (Western Blot): the expression of anti-apoptotic protein Bcl-xl was increased, and the proapoptotic protein BAX was inhibited
  expression of MMP-13 in the liver (qPCR): increase the expression of matrix metalloproteinase-13 (MMP-13)
  expression of pro-apoptotic and anti-apoptotic genes and proteins: could also reduce the expression of pro-apoptotic genes and proteins, and increase the expression of anti-apoptotic genes
  expression of α-SMA, Col I, TIMP-1 and TGF-β in the liver (qPCR): could effectively inhibit the expression
  inflammatory infiltration of liver (HE staining): could inhibit the inflammatory infiltration of liver
  oxidative stress (SOD, MDA in liver): SOD content in the liver increased and oxidative product MDA decreased; also recorded: could reverse the oxidative stress injuries
  shear wave velocity / liver hardness (SWE): the liver hardness of the KD group decreased; also recorded: could significantly reduce the shear wave velocity
  therapeutic effect on MCD-induced NASH (overall, vs silymarin and Fuzheng Huayu capsule): dose-dependent, and its effect was similar to that of the drugs silymarin and Fuzheng Huayu capsule, and was better than that of the drugs in some indexes; also recorded: has a good therapeutic effect on MCD-induced NASH
[3]; 30, 20 and 10 mg/kg KD
  liver histopathological damage (H&E staining): could reduce liver histopathological damage
[3]; Liver fibrosis stage
  Diameter of hepatic portal vein: 0.65 ± 0.07 mm
  Diameter of inferior vena cava: 1.15 ± 0.07 mm
  Length of the spleen: 5.40 ± 0.71 mm
  Oblique diameter of right lobe of liver: 8.35 ± 0.78 mm
  Thickness of the left lobe of liver: 3.65 ± 0.49 mm
  Thickness of the spleen: 1.50 ± 0.14 mm
[3]; NAFL stage
  Diameter of hepatic portal vein: 0.75 ± 0.07 mm
  Diameter of inferior vena cava: 1.50 ± 0.14 mm
  Length of the spleen: 5.40 ± 0.99 mm
  Oblique diameter of right lobe of liver: 7.25 ± 0.21 mm
  Thickness of the left lobe of liver: 4.35 ± 1.20 mm
  Thickness of the spleen: 1.65 ± 0.07 mm
[3]; KD 10 mg/kg
  IFN-γ: 36.71 ± 0.32^ΔΔ pg/mL
  IL-2: 101.31 ± 9.79^##Δ pg/mL
  IL-10: 66.84 ± 2.73 pg/mL
  IL-12: 127.64 ± 2.71 pg/mL
  NO: 56.22 ± 5.32^ΔΔ μmol/L
  TNF-α: 4.10 ± 0.04 pg/mL
[3]; KD 20 mg/kg
  IFN-γ: 33.86 ± 0.65 pg/mL
  IL-2: 133.29 ± 4.57 pg/mL
  IL-10: 84.12 ± 0.23^##ΔΔ pg/mL
  IL-12: 123.05 ± 0.71 pg/mL
  NO: 51.38 ± 1.08^#ΔΔ μmol/L
  TNF-α: 3.03 ± 0.26^##ΔΔ pg/mL
